Assay results from US4024263A, “1,3-Dihydrospiro[isobenzofuran-1,4'-piperidine]s” (American Hoechst Corporation, priority 1975, dated 1977).
Like-named read-outs stand apart in the source and are kept apart here.

Legend:
[1] = system: 2-phenyl-1,4-quinone-induced writhing; assay: 2-phenyl-1,4-quinone-induced writhing assay (analgesia); format: in vivo; details: 50 mg/kg of body weight oral dose, mice
Source text: Exptl. Biol. Med., Vol. 45, 729 (1957)].

[2] = acute lethal toxicity (ALD50); details: mouse, in vivo, ip; intraperitoneal, groups of four mice; read-out: Toxicity ALD50 (acute lethal dose in 50% of the mice tested)
Source text: (§1) The results are expressed in ED50 's (intraperitoneal dose effecting a 50% inhibition of ptosis of tetrabenzazine-induced depression in mice). The doses are in mg/kg of body weight. […] The toxicity data is expressed in ALD50 's (the acute lethal intraperitoneal dose, mg/kg of body weight, in 50% of the mice tested).

[3] = system: tetrabenzazine-induced depression; assay: inhibition of tetrabenzazine-induced depression (ptosis), antidepressant activity; format: in vivo, mice; details: Mus musculus, ip, read-out: Antidepressant ED50 (50% inhibition of ptosis of tetrabenzazine-induced depression)
Source text: as §1

[4] = system: supra maximal electro shock; assay: protection from supra maximal electro shock, anticonvulsant activity (method of Woodbury and Davenport); format: in vivo; details: intraperitoneal dose of about 5 mg/kg of body weight
Protocol: The compounds of the invention are useful as anticonvulsant agents for mammals, as determined by the method of Woodbury, L. A. and Davenport, V. D., in Arch. Int. Pharmacodynam, Vol. 92, (1952) at pages 97-107. For example, 1'-amino-1,3-dihydro-3-phenylspiro[isobenzofuran-1,4'-piperidine]at an intraperitoneal dose of about 5 mg/kg of body weight produced a 50% protection from the effect of a supra maximal electro shock. This datum illustrates the utility of the compounds of the invention for the treatment of convulsion in mammals when administered in amounts ranging from 0.1 to 50 mg/kg of body weight per day.

CC(C)NN1CCC2(CC1)OC(c1ccccc1)c1ccccc12 (stereo not drawn) [Example 3, 1'-(isopropylamino)1,3'-dihydro-3-phenylspiro[isobenzofuran-1,4'-piperidine]]
inhibition of writhing [1]: 27%

COc1ccc2c(c1)C1(CCN(O)CC1)OC2c1ccccc1 (stereo not drawn) [Example 10, 1'-hydroxy-1,3-dihydro-6-methoxy-3-phenylspiro[isobenzofuran-1,4'-piperidine]]
LD50 [2]: > 562 mg/kg | ED50 ([3]; intraperitoneal, mice): 3.2 mg/kg

[O-][N+]1(Cc2ccccc2)CCC2(CC1)OC(c1ccccc1)c1ccccc12 (stereo not drawn) [Example 13, 1'-benzyl-1,3-dihydro-3-phenylspiro[isobenzofuran-1,4'-piperidine]-1'-oxide]
inhibition of writhing [1]: 48%

COc1ccc(C2OC3(CCN(O)CC3)c3ccccc32)cc1 (stereo not drawn) [Example 9, 1'-hydroxy-1,3-dihydro-3-(4-methoxyphenyl)spiro[isobenzofuran-1,4'-piperidine]]
LD50 [2]: > 562 mg/kg | ED50 ([3]; intraperitoneal, mice): 2.6 mg/kg

C[N+]1([O-])CCC2(CC1)OC(c1ccccc1)c1ccccc12 (stereo not drawn) [Example 12, 1,3-dihydro-1'-methyl-3-phenylspiro[isobenzofuran-1,4'-piperidine]-1'-oxide]
LD50 [2]: 280 mg/kg | ED50 [3]: 6.5 mg/kg

O=C(ON1CCC2(CC1)OC(c1ccccc1)c1ccccc12)c1ccccc1 (stereo not drawn) [Example 4, 1'-benzoyloxy-1,3-dihydro-3-phenylspiro[isobenzofuran-1,4'-piperidine]]
inhibition of writhing [1]: 54%

ON1CCC2(CC1)OC(c1ccc(F)cc1)c1ccccc12 (stereo not drawn) [Example 11, 1'-hydroxy-1,3-dihydro-3-(4-fluorophenyl)spiro[isobenzofuran-1,4'-piperidine]]
LD50 [2]: 316 mg/kg | ED50 ([3]; intraperitoneal, mice): 4 mg/kg

ON1CCC2(CC1)OC(c1ccccc1)c1ccccc12 (stereo not drawn) [Example 8, 1'-hydroxy-1,3-dihydro-3-phenylspiro[isobenzofuran-1,4'-piperidine]]
inhibition of writhing [1]: 53% | LD50 [2]: > 562 mg/kg | ED50 ([3]; intraperitoneal, mice): 1.4 mg/kg

NN1CCC2(CC1)OC(c1ccccc1)c1ccccc12 (stereo not drawn) [Example 2, 1'-amino-1,3-dihydro-3-phenylspiro[isobenzofuran-1,4'-piperidine]]
inhibition of writhing [1]: 53% | LD50 [2]: 100 mg/kg | ED50 ([3]; intraperitoneal, mice): 10.3 mg/kg | protection from the effect of a supra maximal electro shock [4]: 50%
